Columns and labels:
[1] = Blood glucose after intranasal insulin with Solutol HS15 or its individual components (Example 8); assay type: in vivo, male Sprague Dawley rats; conditions: insulin 4 IU/kg intranasal; PEG 600 10% w/v, PEG-HSA 10% w/v, HSA 0.37%, HSA-PEG-HSA 2%
Method: The PEG-HSA and HSA-PEG-HSA were prepared by refluxing polyethylene glycol 600 (PEG 600) and 12-Hydroxystearic acid (HSA) under argon at 120° C. using methane sulfonic acid. All chemicals were purchased from Sigma Aldrich.
Four components were tested in vivo. The following components were dissolved into 0.063M phosphate buffer at the concentrations below: • PEG 600—10% w/v solution • PEG-HSA—10% w/v Solution • HSA—0.37% solution • HSA-PEG-HSA—2% solution
The lower concentrations of HSA and HSA-PEG-HSA were used due to restricted solubility of these materials.
The components dissolved in phosphate buffer were then used to prepare 1 mg/mL insulin solutions and administered intranasally to male Sprague Dawley rats at a rate of 4 IU/kg. All formulations were administered with a Gilson pipette and the tip was inserted approximately 5 mm into the nostril. The animals were housed in limited access rooms where the temperature and humidity were maintained at 21° C.±2° C. and 55%±15% relative respectively; the rooms were lit with artificial light for 12 hours each day. Blood samples were collected from the tail vein of the rats at 0 min (Pre-dose) and 5, 15, 30, 60 and 120 minutes after administration into heparinized tubes, centrifuged and the plasma collected. Blood glucose was measured immediately at each sampling point using a one touch Ultra 2 glucose meter (LifeScan, UK).

[2] = Blood glucose after intranasal insulin in Solutol HS15 solutions (Example 1); assay type: in vivo, Sprague Dawley rats; conditions: control insulin solutions, without Solutol HS15
Method: The formulations were then administered intranasally to Sprague Dawley rats at 4 IU/kg and blood samples taken at frequent intervals up to 2 hours after administration. Blood glucose was measured using a standard glucose meter and insulin determined in the plasma by an enzyme linked immunosorbant assay (ELISA).
A group of rats was also administered with insulin dissolved in PBS via subcutaneous injection as comparison to the intranasal doses.

Row | Molecule | drop in blood glucose levels [1] | decrease in plasma glucose levels [2] [%]
1 | CCCCCCC(O)CCCCCCCCCCC(=O)O (centres unmarked) [HSA, 12-Hydroxystearic acid] | did not | 
2 | insulin: Insulin (available from Sigma-Aldrich) |  | 15

Reference: patent US8795634B2, “Absorption of therapeutic agents across mucosal membranes or the skin” (Critical Pharmaceuticals Limited, priority 2008, dated 2014)
